Test results taken from US20160158200A1, “Combinations of Hepatitis C Virus Inhibitors” (priority 2013, published 2016).

Tests used:
Format in all cases: cell-based
[1] = test system: HCV genotype 1a L31V variant with leucine 31 changed to valine in the NS5A protein; assay: microbe, parasite or virus in culture; details: genotype 1a L31V replicon; test compound titrated with compound N47 fixed at 200 nM versus singly
[2] = test system: HCV genotype 1a Y93H variant with tyrosine 93 changed to histidine in the NS5A protein; assay: microbe, parasite or virus in culture; details: genotype 1a Y93H replicon; test compound titrated with compound N47 fixed at 200 nM versus singly
Experimental: Combinations can be examined for synergistic activity using a variety of putative NS5A-targeting compounds and a variety of test compounds. […] The test compound can be chosen from compounds exemplified below, which were prepared by methods known in the art, or from others disclosed in the literature.
Similarly, BMS-790052 can be tested singly and in combination with a fixed amount of compound N47 in the HCV replicon cell based assay consisting of the genotype 1a Y93H variant with tyrosine 93 changed to histidine in the NS5A protein.

[3] = test system: HCV genotype-1a variant with glutamine 30 changed to glutamate in the NS5A protein; details: test compound titrated with BMS-790052 fixed at 200 nM; genotype 1a Q30E replicon
Procedure, shortened: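 Synergy was assessed by combining several fixed amounts of an NS5A-targeting compound with a titration of the second compound of interest.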

In the case of COC(=O)N[C@H](C(=O)N1CCC[C@H]1c1ncc(-c2ccc(-c3ccc(-c4cnc([C@@H]5CCCN5C(=O)[C@@H](NC(=O)OC)C(C)C)[nH]4)cc3)cc2)[nH]1)C(C)C, the “Fold-Synergistic G-1a (L31V)” value [1] is reported as over 100 fold and the “Fold-Synergistic G-1a (Y93H)” value [2] is reported as over 100 fold.

In the case of C[C@H](NC(=O)OCc1ccccc1)c1nc2ccc(CCc3ccc4nc([C@H](C)NC(=O)OCc5ccccc5)[nH]c4c3)cc2[nH]1, the “Fold-Synergistic G-1a (L31V)” value [1] is reported as under 10 fold and the “Fold-Synergistic G-1a (Y93H)” value [2] is reported as under 10 fold.

COC(=O)N[C@H](C(=O)N1CCC[C@H]1c1ncc(-c2cnc(-c3ncc(-c4cnc([C@@H]5CCCN5C(=O)[C@@H](NC(=O)OC)C(C)C)[nH]4)s3)s2)[nH]1)C(C)C was tested, and the “Fold-Synergistic G-1a (L31V)” value [1] was over 10 fold and the “Fold-Synergistic G-1a (Y93H)” value [2] was over 100 fold.

COC(=O)N[C@H](C(=O)N1[C@@H]2C[C@@H]2C[C@H]1c1nc2cc(Oc3cccc(-c4ccc5[nH]c([C@@H]6C[C@H]7C[C@H]7N6C(=O)[C@@H](NC(=O)OC)C(C)C)nc5c4)c3)ccc2[nH]1)C(C)C was tested, and the “Fold-Synergistic G-1a (L31V)” value [1] was over 10 fold and the “Fold-Synergistic G-1a (Y93H)” value [2] was over 10 fold.

With CN(C)[C@@H](C(=O)N1CCC[C@H]1c1nc2ccc(-c3ncc([C@@H]4CCCN4C(=O)[C@@H](c4ccccc4)N(C)C)o3)cc2[nH]1)c1ccccc1 the “Fold-Synergistic G-1a (L31V)” value [1] was under 10 fold and the “Fold-Synergistic G-1a (Y93H)” value [2] was under 10 fold.

With C[C@](O)(C(=O)N1CCC[C@H]1c1nc2ccc(-c3ccc(-c4ccc5nc([C@@H]6CCCN6C(=O)[C@](C)(O)c6ccccc6)[nH]c5c4)o3)cc2[nH]1)c1ccccc1 the “Fold-Synergistic G-1a (L31V)” value [1] was under 10 fold and the “Fold-Synergistic G-1a (Y93H)” value [2] was under 10 fold.

For COC(=O)N[C@H](C(=O)N1C[C@@H](C)C[C@H]1c1ncc(-c2ccc(-c3ccc(-c4cnc([C@@H]5C[C@H](C)CN5C(=O)[C@@H](NC(=O)OC)C(C)C)[nH]4)cc3)cc2)[nH]1)C(C)C, the “Fold-Synergistic G-1a (L31V)” value [1] was over 10 fold and the “Fold-Synergistic G-1a (Y93H)” value [2] was over 100 fold.

With COC(=O)N[C@@H](C(=O)N1CCC[C@H]1c1ncc(-c2ccc(-c3ccc(-c4cnc([C@@H]5CCCN5C(=O)[C@H](NC(=O)OC)c5ccccc5)[nH]4)cc3)cc2)[nH]1)c1ccccc1 the “Fold-Synergistic G-1a (L31V)” value [1] was over 10 fold and the “Fold-Synergistic G-1a (Y93H)” value [2] was under 10 fold.

O=C(Cc1ccccc1)N1CCC[C@H]1c1nc2cc(-c3ccc4nc([C@@H]5CCCN5C(=O)Cc5ccccc5)[nH]c4c3)ccc2[nH]1 was tested, and the “Fold-Synergistic G-1a (L31V)” value [1] was under 10 fold and the “Fold-Synergistic G-1a (Y93H)” value [2] was under 10 fold.

In the case of COC(=O)N[C@H](C(=O)N1[C@@H]2C[C@@H]2C[C@H]1c1nc(Cl)c(-c2ccc(-c3ccc(-c4[nH]c([C@@H]5C[C@H]6C[C@H]6N5C(=O)[C@@H](NC(=O)OC)C(C)C)nc4Cl)cc3)cc2)[nH]1)C(C)C, the “Fold-Synergistic G-1a (L31V)” value [1] is reported as over 10 fold and the “Fold-Synergistic G-1a (Y93H)” value [2] is reported as under 10 fold.

For COC(=O)NC(C(=O)N1[C@@H](C)CC[C@H]1c1ncc(-c2ccc(-c3cnc(-c4cnc([C@@H]5CC[C@H](C)N5C(=O)[C@@H](NC(=O)OC)[C@H]5C[C@@H](C)O[C@@H](C)C5)[nH]4)c4cccn34)cc2)[nH]1)[C@H]1C[C@@H](C)O[C@@H](C)C1 (stereo partly shown), the “Fold-Synergistic G-1a (L31V)” value [1] was over 10 fold and the “Fold-Synergistic G-1a (Y93H)” value [2] was over 100 fold.

COC(=O)N[C@H](C(=O)N1CCC[C@H]1c1ncc(-c2ccc3oc(-c4ccc5nc([C@@H]6CCCN6C(=O)[C@@H](NC(=O)OC)C(C)C)[nH]c5c4)nc3c2)[nH]1)C(C)C was tested, and the “Fold-Synergistic G-1a (L31V)” value [1] was over 100 fold and the “Fold-Synergistic G-1a (Y93H)” value [2] was over 100 fold.

In the case of COC(=O)N[C@H](C(=O)N1[C@H](c2ncc(-c3ccc(-c4ccc(-c5cnc([C@@H]6C[C@H](C)[C@H](C)N6C(=O)[C@@H](NC(=O)OC)C(C)C)[nH]5)cc4)cc3)[nH]2)C[C@H](C)[C@@H]1C)C(C)C, the “Fold-Synergistic G-1a (L31V)” value [1] is reported as over 100 fold and the “Fold-Synergistic G-1a (Y93H)” value [2] is reported as over 100 fold.

For CN1CCN(C(C(=O)N2CCC[C@H]2C(=O)Nc2ccc(-c3cnc(-c4ccc(NC(=O)[C@@H]5CCCN5C(=O)C(c5ccccc5)N5CCN(C)CC5)cc4)o3)cc2)c2ccccc2)CC1 (stereo partly shown), the “Fold-Synergistic G-1a (L31V)” value [1] was under 10 fold and the “Fold-Synergistic G-1a (Y93H)” value [2] was under 10 fold.

In the case of COC(=O)N[C@H](C(=O)N1[C@@H](C)CC[C@H]1c1ncc(-c2ccc(-c3ccc4cc(-c5cnc([C@@H]6CC[C@H](C)N6C(=O)[C@@H](NC(=O)OC)C(C)C)[nH]5)ccc4c3)cc2)[nH]1)C(C)C, the “Fold-Synergistic G-1a (L31V)” value [1] is reported as under 10 fold and the “Fold-Synergistic G-1a (Y93H)” value [2] is reported as over 100 fold.

COC(=O)N[C@H](C(=O)N1[C@@H]2CCC[C@@H]2C[C@H]1c1nc(-c2ccc(-c3ccc(-c4c[nH]c([C@@H]5C[C@H]6CCC[C@H]6N5C(=O)[C@@H](NC(=O)OC)C(C)C)n4)cc3)cc2)c[nH]1)C(C)C was tested, and the “Fold-Synergistic G-1a (L31V)” value [1] was over 100 fold and the “Fold-Synergistic G-1a (Y93H)” value [2] was over 100 fold.

With COC(=O)N[C@H](C(=O)N1CCC[C@H]1c1nc(-c2ccc(-c3ccc(-c4ccc5nc([C@@H]6CCCN6C(=O)[C@@H](NC(=O)OC)C(C)C)[nH]c5c4)cc3)cc2)c[nH]1)C(C)C the “Fold-Synergistic G-1a (L31V)” value [1] was over 10 fold and the “Fold-Synergistic G-1a (Y93H)” value [2] was over 10 fold.

With COC(=O)N[C@H](C(=O)N1CCC[C@H]1c1ncc(-c2ccc([C@H]3CC[C@H](c4ccc(-c5cnc([C@@H]6CCCN6C(=O)[C@@H](NC(=O)OC)C(C)C)[nH]5)cc4)N3c3ccc(F)cc3)cc2)[nH]1)C(C)C the “Fold-Synergistic G-1a (Y93H)” value [2] was over 10 fold.

For COC(=O)N[C@H](C(=O)N1CCC[C@H]1c1ncc(-c2ccc([C@H]3CC[C@@H](c4ccc(-c5cnc([C@@H]6CCCN6C(=O)[C@@H](NC(=O)OC)C(C)C)[nH]5)cc4)N3c3ccc(F)cc3)cc2)[nH]1)C(C)C, the “Fold-Synergistic G-1a (Y93H)” value [2] was over 10 fold.

For CC(C)(C)OC(=O)N1CCCCC1(C)C(=O)N[C@H](c1nc(-c2ccc(-c3ccc(-c4c[nH]c([C@@H](NC(=O)C5(C)CCCCN5C(=O)OC(C)(C)C)C(C)(C)C)n4)cc3)cc2)c[nH]1)C(C)(C)C (single isomer, unassigned) [Compound L-46b], the “Fold-Synergistic 1a (Q30E)” value [3] was over 100 fold.

In the case of CC(C)[C@H](NC(=O)C1(C)CCCCC1)c1ncc(-c2ccc(-c3ccc(-c4cnc([C@@H](NC(=O)C5(C)CCCCC5)C(C)C)[nH]4)c(OC(F)F)c3)cc2)[nH]1 [Compound Y-12], the “Fold-Synergistic 1a (Q30E)” value [3] is reported as over 100 fold.

In the case of CC(C)(C)OC(=O)N1CCCCC1(C)C(=O)N[C@H](c1nc(-c2ccc(-c3ccc(-c4c[nH]c([C@@H](NC(=O)C5(C)CCCCN5C(=O)OC(C)(C)C)C(C)(C)C)n4)cc3)cc2)c[nH]1)C(C)(C)C (single isomer, unassigned) [Compound L-46a], the “Fold-Synergistic 1a (Q30E)” value [3] is reported as over 100 fold.

In the case of CC(C)[C@H](NC(=O)C1(c2ccc(F)cc2)CCC1)c1ncc(-c2ccc(-c3ccc(-c4cnc([C@@H](NC(=O)C5(c6ccc(F)cc6)CCC5)C(C)C)[nH]4)cc3)cc2)[nH]1 [Compound P-82], the “Fold-Synergistic 1a (Q30E)” value [3] is reported as over 100 fold.

With CC(C)(C)[C@H](NC(=O)[C@@]1(C)CC(F)(F)CO1)c1nc(-c2ccc(-c3ccc(-c4c[nH]c([C@@H](NC(=O)[C@@]5(C)CC(F)(F)CO5)C(C)(C)C)n4)cc3)cc2)c[nH]1 [Compound Y-77] the “Fold-Synergistic 1a (Q30E)” value [3] was over 100 fold.

CC(O)C1(C(=O)N[C@H](c2nc(-c3ccc(-c4ccc(-c5c[nH]c([C@@H](NC(=O)C6(C(C)O)CCCCC6)C(C)(C)C)n5)cc4)cc3)c[nH]2)C(C)(C)C)CCCCC1 (single isomer, unassigned) [Compound N-152B] was tested, and the “Fold-Synergistic 1a (Q30E)” value [3] was over 100 fold.

CC(C)[C@H](NC(=O)C(C)(C)N1C[C@@H](C)O[C@@H](C)C1)c1nc(-c2ccc(-c3ccc(-c4c[nH]c([C@@H](NC(=O)C(C)(C)N5C[C@@H](C)O[C@@H](C)C5)C(C)C)n4)cc3)cc2)c[nH]1 [Compound W-161] was tested, and the “Fold-Synergistic 1a (Q30E)” value [3] was over 100 fold.

CC(C)[C@H](NC(=O)C1CCCCO1)c1ncc(-c2ccc(-c3ccc(-c4cnc([C@@H](NC(=O)C5CCCCO5)C(C)C)[nH]4)cc3)cc2)[nH]1 (single isomer, unassigned) [Compound Y-57] was tested, and the “Fold-Synergistic 1a (Q30E)” value [3] was over 100 fold.

With CC(C)(C)C(=O)N[C@H](c1nc(-c2ccc(-c3ccc(-c4c[nH]c([C@@H](NC(=O)C(C)(C)C)C(C)(C)CO)n4)cc3)cc2)c[nH]1)C(C)(C)CO [Compound N-110] the “Fold-Synergistic 1a (Q30E)” value [3] was over 100 fold.

CC(C)(C)[C@H](NC(=O)C1C2CC(F)(F)CC21)c1nc(-c2ccc(-c3ccc(-c4c[nH]c([C@@H](NC(=O)C5C6CC(F)(F)CC65)C(C)(C)C)n4)cc3)cc2)c[nH]1 (stereo partly shown) [Compound Y-7] was tested, and the “Fold-Synergistic 1a (Q30E)” value [3] was over 100 fold.

For CC(C)[C@H](NC(=O)C(=O)C(C)(C)C(F)F)c1ncc(-c2ccc(-c3ccc(-c4cnc([C@@H](NC(=O)C(=O)C(C)(C)C(F)F)C(C)C)[nH]4)cc3)cc2)[nH]1 [Compound P-124], the “Fold-Synergistic 1a (Q30E)” value [3] was over 100 fold.

With CC(C)(C)[C@H](NC(=O)C(C)(C)C(C)(C)O)c1ncc(-c2ccc(-c3ccc(-c4cnc([C@@H](NC(=O)C(C)(C)C(C)(C)O)C(C)(C)C)[nH]4)cc3)cc2)[nH]1 [Compound B69] the “Fold-Synergistic 1a (Q30E)” value [3] was over 100 fold.

In the case of Cc1cc(CC(=O)N[C@H](c2ncc(-c3ccc(-c4ccc(-c5cnc([C@@H](NC(=O)Cc6cc(C)no6)C(C)C)[nH]5)cc4)cc3)[nH]2)C(C)C)on1 [Compound P-76], the “Fold-Synergistic 1a (Q30E)” value [3] is reported as over 10 fold.
